# Reference: patent publication US20260364184A1, “COMPOUND BASED ON OXOISOINDOLINYL-SUBSTITUTED TETRAHYDROPYRIMIDINE-DIONE AND USE THEREOF” (GLUETACS THERAPEUTICS (SHANGHAI) CO., LTD., priority 2023, published 2026)
# Tests used:
# [1] = tested on: Human non-small cell lung cancer cell line NCI-H1975; test: Inhibition of H1975 cell proliferation (CellTiter luminescent viability); format: cell-based; settings: Table ID1, EGFR inhibitor-based; H1975, 96 hours; read-out: Inhibitory activity (IC50, nM) on tumor cell proliferation, H1975
# Procedure: The tumor cells used herein were cultured in a cell culture medium listed in table 3 at 37 °C in an incubator with 5% CO2. Prior to experimentation, all cell lines used were correctly identified by STR profiling, and tested negative for mycoplasma contamination using a mycoplasma detection kit through routine screenings.
# The IC50 values of the compounds of the present disclosure (including the compounds in Table 1, Table 2, and Examples 1-468) were determined using the CellTiter-Meiluncell Luminescent Cell Viability Assay Kit from Dalian Meilun Biotech Co., Ltd. The detailed procedure is as follows: Tumor cells were seeded in 96-well cell culture plates at the densities specified in Table 4. On the following day, the test compounds of the present disclosure were subjected to serial dilution. The dilution can be performed according to one of the following two methods: • (1) The first dilution method: The test compounds of the present disclosure (including the compounds in Table 1, Table 2, and Examples 1-468) were subjected to 5-fold serial dilutions starting from a highest concentration of 2000 μM, resulting in a total of 9 concentrations from high to low (2000, 400, 80, 16, 3.2, 0.64, 0.128, 0.0256, 0.00512 μM). Subsequently, 0.5 μL of the test compound dilution was transferred into the 96-well plate containing the cells, with each well containing 100 μL of cell culture medium. […] Into the 96-well plate, the diluted test compounds and corresponding detection reagents were added, resulting in final test compound concentrations of 500 nM and 10 nM, respectively. The experimental procedure is described below using the diluted 2 μM test compound as an example.
# 0.5 μL of the aforementioned diluted compound of the present disclosure (including the compounds in Table 1, Table 2, and Examples 1-468) was added to the seeded cells in 100 μL of medium, yielding a final test compound concentration of 10 nM. After the cells were treated with the compounds of the present disclosure for a specified period, the cell viability assay reagent was added to the culture medium according to the kit's instructions to determine cell viability. […] All controls were treated using the same procedure as the compounds of the present disclosure. The growth inhibition curves for the compounds of the present disclosure were plotted using Prism GraphPad software, and the IC50 values were calculated therefrom.
# [2] = target: T1, EGFR (Homo sapiens, UniProt P00533); test: Western blot degradation of EGFR; format: cell-based; settings: H1975 Cell; 24 hours
# T1 construct: L858R/T790M in cis, heterozygous with wild type), Western blot
# Procedure: Conventional Western blot assay was performed to evaluate the effects of the compounds of the present disclosure on the expression of target proteins in cells.
# (1) Cell Seeding and Protein Harvesting: The selected cells were processed according to the cell seeding procedure and protein harvesting procedure in Table II-2.
# (2) To the collected supernatant, 5×SDS sample loading buffer was added, followed by denaturation at 95 °C for 5 minutes. The denatured samples were then separated by SDS-PAGE electrophoresis on a polyacrylamide gel. Proteins were transferred to a nitrocellulose membrane (0.45 μm NC membrane), blocked with blocking buffer at room temperature for 1 hour, and subjected to antibody incubation and development procedures according to the antibody manufacturer's instructions (Cell Signaling Technology).
# Half-Maximal Degradation Concentration value (the drug concentration required for degrading proteins by 50%, abbreviated as DC50) reads method: comparing the grayscale values of Western blot bands from drug-treated samples with those from blank DMSO-treated controls, and identifying the drug concentration range at which the grayscale value is half that of the DMSO-treated control bands.
# DC50 values can be calculated using ImageJ software to measure grayscale values of Western blot bands from drug-treated samples. The concentration-response curve is fitted to estimate the drug concentration corresponding to half the grayscale value.
# Target protein remaining (%) refers to the percentage of target protein remaining in cells after treatment with protein degrader compounds.
# Calculation method for target protein remaining (%): Use ImageJ software to measure grayscale values of Western blot bands from drug (protein degrader)-treated samples. The grayscale value of drug-treated bands is divided by that of internal control protein bands, and the resulting quotient is normalized to obtain the relative percentage of remaining target protein after protein degrader treatment.
# Target protein degradation rate (%)=1−target protein remaining (%).
# [3] = target: T2, human Cereblon WT GST-tagged protein (CRBN) (Homo sapiens, UniProt Q96SW2); test: CRBN binding by HTRF (Cereblon binding kit)
# T2 construct: purchased CISBIO 64BDCRBNPEH
# Method in brief: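 GST-tagged human Cereblon WT was incubated 3 h at room temperature with compound, thalidomide-Re tracer and Eu anti-GST antibody. Final compound concentrations were 10 to 0.00064 µM (7 points) or 2 and 0.5 µM. Inhibition rate was calculated from HTRF 665/620 nm ratios versus solvent and blank controls.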
# T1 sequence (P00533 25-1210): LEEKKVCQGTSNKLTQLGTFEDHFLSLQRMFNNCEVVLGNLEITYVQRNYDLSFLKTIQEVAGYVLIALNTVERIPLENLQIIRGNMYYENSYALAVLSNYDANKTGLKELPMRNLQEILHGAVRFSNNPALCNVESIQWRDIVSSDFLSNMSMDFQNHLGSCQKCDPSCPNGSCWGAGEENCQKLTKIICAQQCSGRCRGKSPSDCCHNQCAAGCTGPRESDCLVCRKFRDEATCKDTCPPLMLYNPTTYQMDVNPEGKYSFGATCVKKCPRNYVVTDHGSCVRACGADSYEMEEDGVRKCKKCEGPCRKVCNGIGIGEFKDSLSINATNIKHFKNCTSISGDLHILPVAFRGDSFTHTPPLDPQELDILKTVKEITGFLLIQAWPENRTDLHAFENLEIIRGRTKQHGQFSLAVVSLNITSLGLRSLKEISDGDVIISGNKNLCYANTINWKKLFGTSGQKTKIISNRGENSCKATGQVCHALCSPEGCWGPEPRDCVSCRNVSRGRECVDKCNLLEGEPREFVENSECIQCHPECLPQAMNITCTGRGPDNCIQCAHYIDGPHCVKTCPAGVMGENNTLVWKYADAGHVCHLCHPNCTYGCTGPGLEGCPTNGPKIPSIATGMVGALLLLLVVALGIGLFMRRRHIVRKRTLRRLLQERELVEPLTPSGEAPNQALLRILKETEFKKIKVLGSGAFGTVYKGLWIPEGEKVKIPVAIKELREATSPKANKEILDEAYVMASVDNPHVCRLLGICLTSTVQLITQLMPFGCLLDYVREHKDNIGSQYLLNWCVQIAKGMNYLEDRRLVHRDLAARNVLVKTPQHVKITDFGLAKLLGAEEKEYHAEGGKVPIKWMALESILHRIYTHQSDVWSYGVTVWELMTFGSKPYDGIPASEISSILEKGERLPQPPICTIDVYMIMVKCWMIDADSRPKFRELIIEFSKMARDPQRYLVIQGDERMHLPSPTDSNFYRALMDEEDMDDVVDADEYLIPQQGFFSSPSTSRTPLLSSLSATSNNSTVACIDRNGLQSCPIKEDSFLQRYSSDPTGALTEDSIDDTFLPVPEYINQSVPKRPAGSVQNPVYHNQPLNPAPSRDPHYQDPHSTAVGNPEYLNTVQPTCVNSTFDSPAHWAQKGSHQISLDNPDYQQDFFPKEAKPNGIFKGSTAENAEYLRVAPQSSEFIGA
# T1 sequence (Q96SW2 whole entry partner): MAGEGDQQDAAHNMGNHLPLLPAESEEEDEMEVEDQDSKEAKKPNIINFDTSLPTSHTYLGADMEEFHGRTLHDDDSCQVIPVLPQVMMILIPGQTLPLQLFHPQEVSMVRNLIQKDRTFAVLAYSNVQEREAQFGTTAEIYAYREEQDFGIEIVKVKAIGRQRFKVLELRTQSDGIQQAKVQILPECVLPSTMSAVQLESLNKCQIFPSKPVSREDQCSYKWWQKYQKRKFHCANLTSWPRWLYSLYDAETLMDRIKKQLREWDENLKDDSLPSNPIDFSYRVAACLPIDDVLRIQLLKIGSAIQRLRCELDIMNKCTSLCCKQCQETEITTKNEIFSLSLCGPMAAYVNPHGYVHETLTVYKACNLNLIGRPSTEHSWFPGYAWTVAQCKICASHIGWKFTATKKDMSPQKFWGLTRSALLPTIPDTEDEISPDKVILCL
# T2 sequence (Q96SW2 whole entry): as the sequence (Q96SW2 whole entry partner) above
IC50 [1],Degradation of substrate protein EGFR (substrate protein remaining %) [2],Inhibition Rate at 0.5 μM (%) ([3]; 0.5 μM),Inhibition Rate at 2 μM (%) ([3]; 2 μM),Compound
10 to 50 nM,A (0%≤substrate protein remaining %≤80%),,,"O=C1CCN(N2C(=O)c3ccc(N4CCC(CN5C[C@H]6C[C@@H]5CN6c5ccc(-c6cc(F)c7c(c6)C(=O)N(C(C(=O)Nc6nccs6)c6ncn8c6CCC8)C7)cc5)CC4)cc3C2=O)C(=O)N1 (stereo partly drawn) [GT-06174, 2-(6,7-dihydro-5H-pyrrolo[1,2-c]imidazol-1-yl)-2-(6-(4-((1R,4R)-5-((1-(2-(2,4-dioxotetrahydropyrimidin-1(2H)-yl)-1,3-dioxoisoindolin-5-yl)piperidin-4-yl)methyl)-2,5-diazabicyclo[2.2.1]heptan-2-yl)phenyl)-4-fluoro-1-oxoisoindolin-2-yl)-N-(thiazol-2-yl)acetamide]"
50 to 100 nM,,,,"O=C1CCN(N2C(=O)c3ccc(CN4CCN(C5CCN(c6ccc(-c7cc(F)c8c(c7)C(=O)N(C(C(=O)Nc7nccs7)c7ncn9c7CCC9)C8)cc6)CC5)CC4)cc3C2=O)C(=O)N1 (stereo not drawn) [GT-06242, 2-(6,7-dihydro-5H-pyrrolo[1,2-c]imidazol-1-yl)-2-(6-(4-(4-(4-((2-(2,4-dioxotetrahydropyrimidin-1(2H)-yl)-1,3-dioxoisoindolin-5-yl)methyl)piperazin-1-yl)piperidin-1-yl)phenyl)-4-fluoro-1-oxoisoindolin-2-yl)-N-(thiazol-2-yl)acetamide]"
10 to 50 nM,,,,"O=C1CCN(N2C(=O)c3cccc(N4CCC(CN5CCN(c6ccc(-c7cc(F)c8c(c7)C(=O)N(C(C(=O)Nc7nccs7)c7ncn9c7CCC9)C8)cc6)CC5)CC4)c3C2=O)C(=O)N1 (stereo not drawn) [GT-06162, 2-(6,7-dihydro-5H-pyrrolo[1,2-c]imidazol-1-yl)-2-(6-(4-(4-((1-(2-(2,4-dioxotetrahydropyrimidin-1(2H)-yl)-1,3-dioxoisoindolin-4-yl)piperidin-4-yl)methyl)piperazin-1-yl)phenyl)-4-fluoro-1-oxoisoindolin-2-yl)-N-(thiazol-2-yl)acetamide]"
10 to 50 nM,A (0%≤substrate protein remaining %≤80%),,,"O=C1CCN(N2C(=O)c3ccc(N4CCC(CN5CCN(c6ccc(-c7cc(F)c8c(c7)C(=O)N(C(C(=O)Nc7nccs7)c7ncn9c7CCC9)C8)cc6)CC5)CC4)cc3C2=O)C(=O)N1 (stereo not drawn) [GT-06161, 2-(6,7-dihydro-5H-pyrrolo[1,2-c]imidazol-1-yl)-2-(6-(4-(4-((1-(2-(2,4-dioxotetrahydropyrimidin-1(2H)-yl)-1,3-dioxoisoindolin-5-yl)piperidin-4-yl)methyl)piperazin-1-yl)phenyl)-4-fluoro-1-oxoisoindolin-2-yl)-N-(thiazol-2-yl)acetamide]"

# Second part, the molecule before the results:
Compound,IC50 [1],Degradation of substrate protein EGFR (substrate protein remaining %) [2],Inhibition Rate at 0.5 μM (%) ([3]; 0.5 μM),Inhibition Rate at 2 μM (%) ([3]; 2 μM)
"O=C1CCN(N2Cc3cc(CN4CCN(C5CCN(c6ccc(-c7cc(F)c8c(c7)C(=O)N(C(C(=O)Nc7nccs7)c7ncn9c7CCC9)C8)cc6)CC5(F)F)CC4)ccc3C2=O)C(=O)N1 (stereo not drawn) [GT-06315, 2-(6,7-dihydro-5H-pyrrolo[1,2-c]imidazol-1-yl)-2-(6-(4-(4-(4-((2-(2,4-dioxotetrahydropyrimidin-1(2H)-yl)-1-oxoisoindolin-5-yl)methyl)piperazin-1-yl)-3,3-difluoropiperidin-1-yl)phenyl)-4-fluoro-1-oxoisoindolin-2-yl)-N-(thiazol-2-yl)acetamide]",< 10 nM,A (0%≤substrate protein remaining %≤80%),,
"O=C1CCN(N2C(=O)c3cccc(N4CCC(CN5C[C@H]6C[C@@H]5CN6c5ccc(-c6cc(F)c7c(c6)C(=O)N(C(C(=O)Nc6nccs6)c6ncn8c6CCC8)C7)cc5)CC4)c3C2=O)C(=O)N1 (stereo partly drawn) [GT-06175, 2-(6,7-dihydro-5H-pyrrolo[1,2-c]imidazol-1-yl)-2-(6-(4-((1R,4R)-5-((1-(2-(2,4-dioxotetrahydropyrimidin-1(2H)-yl)-1,3-dioxoisoindolin-4-yl)piperidin-4-yl)methyl)-2,5-diazabicyclo[2.2.1]heptan-2-yl)phenyl)-4-fluoro-1-oxoisoindolin-2-yl)-N-(thiazol-2-yl)acetamide]",10 to 50 nM,A (0%≤substrate protein remaining %≤80%),,
"O=C1CCN(N2Cc3cc(CN4CCN(c5ccc(-c6cc(F)c7c(c6)C(=O)N(C(C(=O)Nc6nccs6)c6ncn8c6CCC8)C7)cc5)CC4)ccc3C2=O)C(=O)N1 (stereo not drawn) [GT-06159, 2-(6,7-dihydro-5H-pyrrolo[1,2-c]imidazol-1-yl)-2-(6-(4-(4-((2-(2,4-dioxotetrahydropyrimidin-1(2H)-yl)-1-oxoisoindolin-5-yl)methyl)piperazin-1-yl)phenyl)-4-fluoro-1-oxoisoindolin-2-yl)-N-(thiazol-2-yl)acetamide]",< 10 nM,A (0%≤substrate protein remaining %≤80%),,
"O=C1CCN(N2Cc3cc(CN4CCC(N5CCN(c6ccc(-c7cc(F)c8c(c7)C(=O)N(C(C(=O)Nc7nccs7)c7ncn9c7CCC9)C8)cc6)CC5)CC4)ccc3C2=O)C(=O)N1 (stereo not drawn) [GT-06324, 2-(6,7-dihydro-5H-pyrrolo[1,2-c]imidazol-1-yl)-2-(6-(4-(4-(1-((2-(2,4-dioxotetrahydropyrimidin-1(2H)-yl)-1-oxoisoindolin-5-yl)methyl)piperidin-4-yl)piperazin-1-yl)phenyl)-4-fluoro-1-oxoisoindolin-2-yl)-N-(thiazol-2-yl)acetamide]",10 to 50 nM,,a1 (10% < a1 ≤ 20%),a5 (53% < a5 ≤ 60%)
"CN(C)C/C=C/C(=O)Nc1cc2c(Nc3ccc(F)c(Cl)c3)ncnc2cc1O[C@H]1CCOC1 [afatinib, Afatinib, reference compound]",130 to 200 nM,,,
"O=C1CCN(N2C(=O)c3ccc(CN4C5CCC4CN(c4ccc(-c6cc(F)c7c(c6)C(=O)N(C(C(=O)Nc6nccs6)c6ncn8c6CCC8)C7)cc4)C5)cc3C2=O)C(=O)N1 (stereo not drawn) [GT-06251, 2-(6,7-dihydro-5H-pyrrolo[1,2-c]imidazol-1-yl)-2-(6-(4-(8-((2-(2,4-dioxotetrahydropyrimidin-1(2H)-yl)-1,3-dioxoisoindolin-5-yl)methyl)-3,8-diazabicyclo[3.2.1]octan-3-yl)phenyl)-4-fluoro-1-oxoisoindolin-2-yl)-N-(thiazol-2-yl)acetamide]",100 to 130 nM,,,
"O=C1CCN(N2C(=O)c3ccc(CN4CCN(C5CCN(c6ccc(-c7cc(F)c8c(c7)C(=O)N(C(C(=O)Nc7nccs7)c7ncn9c7CCC9)C8)cc6)CC5(F)F)CC4)cc3C2=O)C(=O)N1 (stereo not drawn) [GT-06316, 2-(6,7-dihydro-5H-pyrrolo[1,2-c]imidazol-1-yl)-2-(6-(4-(4-(4-((2-(2,4-dioxotetrahydropyrimidin-1(2H)-yl)-1,3-dioxoisoindolin-5-yl)methyl)piperazin-1-yl)-3,3-difluoropiperidin-1-yl)phenyl)-4-fluoro-1-oxoisoindolin-2-yl)-N-(thiazol-2-yl)acetamide]",50 to 100 nM,,,
